Reference: publication PMC7115414 (European Journal of Medicinal Chemistry, 2017)

Columns and labels:
SARS-CoV M^pro [1] = molecular target: T1, SARS-CoV M^pro (Severe acute respiratory syndrome coronavirus, UniProt P0C6X7); experiment: biochemical
SARS-CoV M^pro [2] = molecular target: T1, SARS-CoV M^pro; type: biochemical

SMILES | IC50 (SARS-CoV M^pro [1]) | inhibition type (reciprocal plots, velocity versus substrate concentration) (SARS-CoV M^pro [2]) | reversibility (plot of enzyme concentration versus reaction velocity) (SARS-CoV M^pro [2]) | α (effect of inhibitor on the affinity of the enzyme for its substrate) (SARS-CoV M^pro [2])
COC(=O)c1c[nH]c(SSc2ccc(Cl)cc2)n1 [Compound 3-17, Methyl 2-((4-chlorophenyl)disulfanyl)-1H-imidazole-4-carboxylate] | 4.13 ± 0.094 µM | – | – | –
Brc1ccc(SSc2ncccn2)cc1 [Compound 3-39, 2-((4-bromophenyl)disulfanyl)pyrimidine] | – | non-competitive inhibitor | reversible | < 1
CCOC(=O)c1ccccc1SSc1nc(C(=O)OC)c[nH]1 [Compound 3-15, Methyl 2-((2-(ethoxycarbonyl)phenyl)disulfanyl)-1H-imidazole-4-carboxylate] | 5.95 ± 0.363 µM | – | – | –
COC(=O)c1c[nH]c(SSc2ccccc2C(=O)OC)n1 [Compound 3-16, Methyl 2-((2-(methoxycarbonyl)phenyl)disulfanyl)-1H-imidazole-4-carboxylate] | 3.96 ± 0.19 µM | – | – | –
Clc1ccc(SSc2nnco2)cc1 [Compound 3-31, 2-((4-chlorophenyl)disulfanyl)-1,3,4-oxadiazole] | – | non-competitive inhibitor | reversible | < 1
COC(=O)c1c[nH]c(SSc2ccccc2[N+](=O)[O-])n1 [Compound 3-14, Methyl 2-((2-nitrophenyl)disulfanyl)-1H-imidazole-4-carboxylate] | 2.075 ± 0.016 µM | – | – | –
